This assay addresses Acetylcholinesterase (Homo sapiens, UniProt P22303). In words: Inhibition of AChE (unknown origin).

Molecules are shown by their SMILES.

Acetylcholinesterase, sequence (P22303 whole entry): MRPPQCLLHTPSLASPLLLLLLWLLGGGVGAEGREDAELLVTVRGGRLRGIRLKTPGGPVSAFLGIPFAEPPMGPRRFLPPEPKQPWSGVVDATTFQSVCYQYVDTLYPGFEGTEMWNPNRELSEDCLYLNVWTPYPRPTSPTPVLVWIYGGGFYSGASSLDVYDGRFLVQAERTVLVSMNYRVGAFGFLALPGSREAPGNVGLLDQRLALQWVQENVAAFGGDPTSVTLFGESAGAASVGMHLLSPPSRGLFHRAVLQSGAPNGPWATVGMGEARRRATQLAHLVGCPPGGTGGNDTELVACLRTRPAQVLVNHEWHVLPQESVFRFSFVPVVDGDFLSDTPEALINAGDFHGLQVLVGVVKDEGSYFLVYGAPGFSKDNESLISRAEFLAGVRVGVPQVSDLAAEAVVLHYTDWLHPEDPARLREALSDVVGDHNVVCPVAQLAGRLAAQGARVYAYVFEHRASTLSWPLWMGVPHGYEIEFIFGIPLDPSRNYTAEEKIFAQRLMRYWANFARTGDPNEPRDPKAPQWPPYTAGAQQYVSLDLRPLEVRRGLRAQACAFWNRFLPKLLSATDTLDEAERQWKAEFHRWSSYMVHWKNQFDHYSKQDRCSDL

As to `CO[C@@H]1C=C[C@@]23c4cc5c(cc4C[N@@+]([O-])(CCc4ccccc4)[C@@H]2C(=O)N(C)[C@H]3C1)OCO5`, the half-maximal inhibitory concentration (IC50) (usually the midpoint of a concentration-inhibition curve) was over 200 µM. As for `COc1cc2c3c(c1)c1cc(=O)c(OC)cc-1cn3CC2`, inhibition was half-maximal at 35.6 µM (IC50). Next, `COc1cc2c(cc1O)[C@@H]1[C@H](O)[C@@H](OC)C=C3CC[N@@+]([O-])(C2)[C@H]31`: over 200 µM. Take `COc1cc2c(cc1OC)[C@@H]1[C@H](O)[C@@H](OC)C=C3CC[N@+]([O-])(C2)[C@H]31`: the IC50 was over 200 µM. With `CO[C@@H]1C=C[C@@]23c4cc5c(cc4C(=O)N(CCC(C)C)[C@@H]2CN(C)[C@@H]3C1)OCO5`, the IC50 is over 200 µM. With `COc1cc2c(cc1O)[C@@H]1[C@H](O)[C@@H](O)C=C3CCN(C2)[C@H]31` [PSEUDOLYCORINE], the IC50 was determined as 188 µM.

In turn, `COc1ccc2c3c1O[C@H]1C[C@@H](O)C=C[C@@]31[C@H](O)C[N@@+](C)([O-])C2` yielded a half-inhibitory concentration (IC50) of over 200 µM. For `COc1cc2c(cc1O)[C@@H]1[C@H](O)[C@@H](OC)C=C3CCN(C2)[C@H]31`, the 50% inhibitory concentration (IC50) is over 200 µM. `O[C@H]1[C@H]2c3cc4c(cc3CN3CCC(=C[C@@H]1O)[C@H]23)OCO4` [LYCORINE] displayed a half-maximal inhibitory concentration (IC50) of over 200 µM. Next, `CO[C@@H]1C=C[C@@]23c4cc5c(cc4CN(CCc4ccccc4)[C@@H]2C(=O)N(C)[C@H]3C1)OCO5`: over 200 µM; `CO[C@@H]1C=C[C@@]23c4cc5c(cc4CN(C)[C@@H]2C(=O)N(C)[C@H]3C1)OCO5`: over 200 µM. As to `CO[C@@H]1C=C[C@@]23c4cc5c(cc4C(=O)N(C)[C@@H]2C(=O)N(C)[C@H]3C1)OCO5`, the 50% inhibitory concentration (IC50) is over 200 µM. The molecule `CO[C@@H]1C=C[C@@]23c4cc5c(cc4CN(CCC(C)C)[C@@H]2C(=O)N(C)[C@H]3C1)OCO5` displayed a concentration for half-maximal inhibition (IC50) of over 200 µM. Turning to `CO[C@@H]1C=C[C@@]23c4cc5c(cc4CN(CCc4ccc(O)cc4)[C@@H]2C(=O)N(C)[C@H]3C1)OCO5`, the IC50 was over 200 µM.

Turning to `CO[C@@H]1C=C[C@@]23c4cc5c(cc4C(=O)N(CCC(C)C)[C@@H]2C(=O)N(C)[C@H]3C1)OCO5`, the IC50 is over 200 µM. Next, `CO[C@@H]1C=C[C@@]23c4cc5c(cc4C[N@@+]([O-])(CCO)[C@@H]2C(=O)N(C)[C@H]3C1)OCO5`: 126 µM; `CO[C@@H]1C=C[C@@]2(CN(CCC(C)C)Cc3cc4c(cc32)OCO4)[C@@H](N(C)C=O)C1`: over 200 µM. Regarding `COc1cc2c(cc1OC)[C@@H]1[C@H](O)[C@@H](OC)C=C3CCN(C2)[C@H]31` [GALANTHINE], the concentration for half-maximal inhibition (IC50) came out at 6.1 µM. Next, `CO[C@@H]1C=C[C@@]23c4cc5c(cc4CN(CCC(C)C)[C@]2(C(C)=O)C(=O)N(C)[C@H]3C1)OCO5`: over 200 µM; `COc1ccc2c3c1O[C@H]1C[C@H](O)CC[C@@]31CCN(C)C2`: 57.9 µM. On to `CO[C@@H]1C=C[C@@]23c4cc5c(cc4C[N@@+]([O-])(CCc4ccc(O)cc4)[C@@H]2C(=O)N(C)[C@H]3C1)OCO5`, for which the IC50 was over 200 µM.

On to `COc1ccc2c3c1O[C@H]1C[C@@H](O)CC[C@@]31CC[N@@+](C)([O-])C2`, for which the IC50 is over 200 µM. Take `COc1ccc2c3c1O[C@H]1C[C@@H](O)CC[C@@]31CCN(C)C2`: the IC50 was 20.1 µM. In other words, the double-digit micromolar range.

`CN[C@H]1C[C@H](OC)C=C[C@@]12C(=O)N(CCC(C)C)Cc1cc3c(cc12)OCO3` registered an IC50 of over 200 µM.

Values taken from ChEMBL document CHEMBL4130435, “Acetylcholinesterase Inhibitory Alkaloids from the Whole Plants of Zephyranthes carinata” (J Nat Prod, 2017).
